# Measurements reported in the supplement of paper PMC8253809.
# Experiments:
# HGGX42 [1] = H3.3 G34R paediatric high-grade glioma line; assay: EC50 (inflection of fitted growth-inhibition curve) (log10 M)
# Procedure, shortened: (§1)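 Viability readout was CellTiter-Glo luminescence, log2-transformed, normalised per plate to % activity between negative (solvent) and positive control wells, then pooled. This followed a 7-day exposure (3 days for iAstro) at 37 °C, 5% CO2 to a 10-point threefold dilution series (mean top concentration 35 μM), pin-tool delivered in triplicate to patient-derived pHGG/DIPG cell lines and astrocyte controls on 1% Geltrex-coated 384-well plates. Three- and four-parameter log-logistic fits were compared, and the one with the lowest AICc supplied EC50 and maximal response (yFin).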
# HGGX6 [2] = H3.3 G34R paediatric high-grade glioma line; assay: as above
# Procedure, shortened: as §1
# DIPGX29 [3] = H3.3 K27M diffuse intrinsic pontine glioma line; assay: as above
# Procedure, shortened: as §1
# DIPGX37 [4] = H3.3 K27M diffuse intrinsic pontine glioma line; assay: as above
# Procedure, shortened: as §1
# SUDIPGIV [5] = diffuse intrinsic pontine glioma line; assay: as above
# Procedure, shortened: as §1
# HGGX2 [6] = paediatric high-grade glioma line; assay: as above
# Procedure, shortened: as §1
# SUDIPGXXI [7] = diffuse intrinsic pontine glioma line; assay: as above
# Procedure, shortened: as §1
# iAstro [8] = astrocyte control; assay: as above
# Procedure, shortened: as §1
# DIPGX7 [9] = H3.3 K27M diffuse intrinsic pontine glioma line; assay: as above
# Procedure, shortened: as §1
# SUDIPGXVII [10] = diffuse intrinsic pontine glioma line; assay: as above
# Procedure, shortened: as §1
# DIPGX9 [11] = diffuse intrinsic pontine glioma line; assay: as above
# Procedure, shortened: as §1
# HABS [12] = astrocyte control; assay: as above
# Procedure, shortened: as §1
# SUDIPGVI [13] = diffuse intrinsic pontine glioma line; assay: as above
# Procedure, shortened: as §1
# SUDIPGXIII [14] = diffuse intrinsic pontine glioma line; assay: as above
# Procedure, shortened: as §1
# HGGX39 [15] = paediatric high-grade glioma line; assay: as above
# Procedure, shortened: as §1
# HGGX42 [16] = assay: area under dose-response curve of % growth inhibition (log2 RLU vs DMSO / staurosporine), 1e-11 to 1e-4 M (% x log10 M); higher = more growth inhibition
# Procedure, shortened: (§2)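 Patient-derived pHGG/DIPG cell lines and astrocytes, cultured on 384-well plates with a 1% Geltrex coating, were given a 10-point threefold dilution series (mean top concentration 35 μM) in triplicate for 7 days (iAstro 3 days) at 37 °C, 5% CO2. CellTiter-Glo signal, log2-transformed and normalised per plate to % activity against solvent and positive controls, was fitted with a log-logistic curve or, where the sigmoid fit failed, a smoothing spline. Area under the curve was then computed by the trapezoid rule.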
# HGGX6 [17] = assay: as above
# Procedure, shortened: as §2
# DIPGX29 [18] = assay: as above
# Procedure, shortened: as §2
# DIPGX37 [19] = assay: as above
# Procedure, shortened: as §2
# SUDIPGIV [20] = assay: as above
# Procedure, shortened: as §2
# HGGX2 [21] = assay: as above
# Procedure, shortened: as §2
# SUDIPGXXI [22] = assay: as above
# Procedure, shortened: as §2
# iAstro [23] = assay: as above
# Procedure, shortened: as §2
# DIPGX7 [24] = assay: as above
# Procedure, shortened: as §2
# SUDIPGXVII [25] = assay: as above
# Procedure, shortened: as §2
# DIPGX9 [26] = assay: as above
# Procedure, shortened: as §2
# SUDIPGXIX = diffuse intrinsic pontine glioma line; assay: as above
# Procedure, shortened: as §2
# HABS [27] = assay: as above
# Procedure, shortened: as §2
# SUDIPGVI [28] = assay: as above
# Procedure, shortened: as §2
# SUDIPGXIII [29] = assay: as above
# Procedure, shortened: as §2
# HGGX39 [30] = assay: as above
# Procedure, shortened: as §2
Structure (SMILES),EC50 (log10 M) (HGGX42 [1]),EC50 (log10 M) (HGGX6 [2]),EC50 (log10 M) (DIPGX29 [3]),EC50 (log10 M) (DIPGX37 [4]),EC50 (log10 M) (SUDIPGIV [5]),EC50 (log10 M) (HGGX2 [6]),EC50 (log10 M) (SUDIPGXXI [7]),EC50 (log10 M) (iAstro [8]),EC50 (log10 M) (DIPGX7 [9]),EC50 (log10 M) (SUDIPGXVII [10]),EC50 (log10 M) (DIPGX9 [11]),EC50 (log10 M) (HABS [12]),EC50 (log10 M) (SUDIPGVI [13]),EC50 (log10 M) (SUDIPGXIII [14]),EC50 (log10 M) (HGGX39 [15]),area under dose-response curve (HGGX42 [16]),area under dose-response curve (HGGX6 [17]),area under dose-response curve (DIPGX29 [18]),area under dose-response curve (DIPGX37 [19]),area under dose-response curve (SUDIPGIV [20]),area under dose-response curve (HGGX2 [21]),area under dose-response curve (SUDIPGXXI [22]),area under dose-response curve (iAstro [23]),area under dose-response curve (DIPGX7 [24]),area under dose-response curve (SUDIPGXVII [25]),area under dose-response curve (DIPGX9 [26]),area under dose-response curve (SUDIPGXIX),area under dose-response curve (HABS [27]),area under dose-response curve (SUDIPGVI [28]),area under dose-response curve (SUDIPGXIII [29]),area under dose-response curve (HGGX39 [30])
C[C@@]12OC(=O)[C@]1([C@@H](O)[C@@H]1C=CCCC1)NC(=O)[C@@H]2CCCl [MARIZOMIB],-6.62,-6.1,-7.05,-6.54,-7.41,-7.46,-7.88,-8.18,-6.48,-6.26,-6.99,-6.2,-7.2,-6.99,-6.39,163,135,100,254,407,337,422,375,251,108,302,229,149,331,75.8,241
C[C@@H]1O[C@@H](O[C@H]2C[C@@H](O)[C@]3(CO)[C@H]4[C@H](O)C[C@]5(C)[C@@H](C6=CC(=O)OC6)CC[C@]5(O)[C@@H]4CC[C@]3(O)C2)[C@H](O)[C@H](O)[C@H]1O [OUABAIN],-6.47,-6.64,-7.26,-6.7,-6.75,-6.55,-6.79,-6.91,-6.78,-6.53,-6.37,-5.89,-6.13,-6.47,-6.9,127,173,175,126,284,173,251,135,279,186,168,202,133,123,107,218
CC(=O)OC[C@H]1O[C@@H]([S-])[C@H](OC(C)=O)[C@@H](OC(C)=O)[C@@H]1OC(C)=O.CCP(CC)CC.[Au+] [AURANOFIN],-6.16,-6.35,-6.49,-6.41,-5.57,-6.28,-6.66,-5.84,-5.9,-5.45,-5.78,-5.29,-5.76,-5.39,-5.52,243,218,232,219,198,248,323,196,228,169,209,219,146,202,168,165
COC1=CC(c2cc3ccccc3[nH]2)=N/C1=C\c1[nH]c(C)cc1C [OBATOCLAX],-5.63,-5.1,-5.01,-5.01,-5,-5.97,-5.64,-5.45,-5.53,-5,-5.05,-5.01,-5.71,-4.99,-5.02,196,136,174,167,177,217,280,141,219,128,177,216,138,210,128,165
CC(=O)c1cc([N+](=O)[O-])c(Sc2ccc(F)cc2F)s1,-4.68,-4.65,-4.83,-4.79,-4.71,-4.59,-4.78,-4.85,-4.76,-4.75,-4.77,-4.7,-4.76,-4.72,-4.79,84,67.9,104,88.6,91.3,78.5,87.4,75.5,94.3,55.7,92.8,91.8,26.4,71.4,74.4,19.5
CC(C)C[C@H](NC(=O)CNC(=O)c1cc(Cl)ccc1Cl)B(O)O [IXAZOMIB],-7.31,-7.27,-6.63,-7.94,-7.6,-6.73,-7.9,-7.92,-7.71,-7.05,-7.68,-7.43,-7.33,-7.52,-7.57,234,260,210,315,322,242,337,264,302,247,304,327,288,242,266,302
